In article PMC3038857, “Using Nuclear Receptor Activity to Stratify Hepatocarcinogens” (PLoS ONE, 2011):

Key:
[1] = molecular target: T1, AHR (aryl hydrocarbon receptor) (Homo sapiens, UniProt P35869); assay: ATG_Ahr_CIS: Factorial reporter gene assay (multiplexed transcription reporter, HepG2); format: cell-based; conditions: HepG2
T1 construct: endogenous in cells; host or cells: HepG2
T1 sequence (P35869 11-848): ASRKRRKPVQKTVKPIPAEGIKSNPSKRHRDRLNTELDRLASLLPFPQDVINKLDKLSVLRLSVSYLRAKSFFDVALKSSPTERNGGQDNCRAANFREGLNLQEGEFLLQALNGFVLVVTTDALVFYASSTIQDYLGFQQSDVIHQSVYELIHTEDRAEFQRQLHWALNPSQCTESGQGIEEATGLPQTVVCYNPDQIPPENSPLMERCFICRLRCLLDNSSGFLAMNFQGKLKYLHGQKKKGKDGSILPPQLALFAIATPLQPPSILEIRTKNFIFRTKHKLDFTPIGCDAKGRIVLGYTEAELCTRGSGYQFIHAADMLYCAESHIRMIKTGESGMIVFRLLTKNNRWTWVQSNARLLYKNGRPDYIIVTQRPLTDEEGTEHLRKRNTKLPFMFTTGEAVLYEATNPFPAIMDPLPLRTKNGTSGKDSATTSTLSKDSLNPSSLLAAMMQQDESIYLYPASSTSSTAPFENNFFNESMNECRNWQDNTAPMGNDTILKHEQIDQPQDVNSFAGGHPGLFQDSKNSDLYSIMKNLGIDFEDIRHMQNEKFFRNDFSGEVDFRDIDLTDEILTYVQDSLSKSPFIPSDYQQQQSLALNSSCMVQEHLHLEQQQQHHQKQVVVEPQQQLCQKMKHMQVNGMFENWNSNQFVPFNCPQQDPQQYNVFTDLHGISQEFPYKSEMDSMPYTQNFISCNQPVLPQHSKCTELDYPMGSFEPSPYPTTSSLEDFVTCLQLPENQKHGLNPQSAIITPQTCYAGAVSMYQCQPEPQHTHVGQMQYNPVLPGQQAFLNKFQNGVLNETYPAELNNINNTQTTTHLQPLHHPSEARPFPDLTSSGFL
Description: (§1) A multiple reporter transcription unit (MRTU) library consisting of 48 transcription factor binding sites was transfected into the HepG2 human liver hepatoma cell line. In addition to the cis-acting reporter genes (CIS), a modification of the approach was used to generate a trans-system (TRANS) with a mammalian one-hybrid assay consisting of an additional 25 MRTU library reporting the activity of nuclear receptor super-family members. […] These assays were performed by Attagene Inc. (Morrisville NC) under contract to EPA.
(§2) In addition to the cis-acting reporter genes (CIS), a modification of the approach was used to generate a trans-system (TRANS) with a mammalian one-hybrid assay consisting of an additional 25 MRTU library reporting the activity of nuclear receptor super-family members. […] Chemicals were then tested in the CIS and TRANS assays at seven concentrations starting at the MTC and followed by three-fold serial dilutions. These assays were performed by Attagene Inc. (Morrisville NC) under contract to EPA. Detailed description of the methods, data and analysis methods for this dataset will be presented in a separate publication.

[2] = molecular target: T2, ESR1 (estrogen receptor 1) (Homo sapiens, UniProt P03372); assay: ATG_ERa_TRANS: Factorial reporter gene assay (HepG2); format: cell-based; conditions: HepG2
T2 construct: expressed in transfected cells; host or cells: HepG2
T2 sequence (P03372 whole entry): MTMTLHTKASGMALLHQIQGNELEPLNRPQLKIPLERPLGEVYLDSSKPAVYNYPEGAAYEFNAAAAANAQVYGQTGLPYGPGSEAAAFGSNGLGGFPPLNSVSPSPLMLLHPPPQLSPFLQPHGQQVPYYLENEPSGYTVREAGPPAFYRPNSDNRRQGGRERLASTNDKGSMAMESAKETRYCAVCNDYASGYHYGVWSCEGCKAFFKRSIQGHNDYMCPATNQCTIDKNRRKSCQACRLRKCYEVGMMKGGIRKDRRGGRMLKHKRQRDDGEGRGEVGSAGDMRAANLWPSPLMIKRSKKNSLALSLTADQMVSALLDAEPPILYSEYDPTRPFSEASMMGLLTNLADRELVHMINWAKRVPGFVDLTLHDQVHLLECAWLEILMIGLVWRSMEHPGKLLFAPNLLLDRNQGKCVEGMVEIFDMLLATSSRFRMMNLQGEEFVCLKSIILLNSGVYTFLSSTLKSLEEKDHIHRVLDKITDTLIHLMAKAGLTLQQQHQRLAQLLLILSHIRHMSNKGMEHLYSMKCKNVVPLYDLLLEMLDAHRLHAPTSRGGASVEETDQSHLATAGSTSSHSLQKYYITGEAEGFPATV
Description: as §1, §2

CYP2B6 = assay: CLZD_CYP2B6: Change in expression of CYP2B6 (primary human hepatocytes); format: cell-based; conditions: 24 hr
How it was run: (§3)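 Read-out: mRNA change by multiplexed quantitative nuclease protection assay. Primary human hepatocytes; 5 concentrations, 0.004-40 µM; exposures 6, 24, 48 hr.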

CYP3A4 = assay: CLZD_CYP3A4: Change in expression of CYP3A4 (primary human hepatocytes); format: cell-based; conditions: 24 hr
How it was run: as §3

PXR (NR1I2) [3] = molecular target: T3, PXR (NR1I2) (Homo sapiens, UniProt O75469); assay: NVS_NR_hPXR: Human PXR Fluormone PXR (SXR) green (cell-free HTS); format: binding
T3 sequence (O75469 1-434): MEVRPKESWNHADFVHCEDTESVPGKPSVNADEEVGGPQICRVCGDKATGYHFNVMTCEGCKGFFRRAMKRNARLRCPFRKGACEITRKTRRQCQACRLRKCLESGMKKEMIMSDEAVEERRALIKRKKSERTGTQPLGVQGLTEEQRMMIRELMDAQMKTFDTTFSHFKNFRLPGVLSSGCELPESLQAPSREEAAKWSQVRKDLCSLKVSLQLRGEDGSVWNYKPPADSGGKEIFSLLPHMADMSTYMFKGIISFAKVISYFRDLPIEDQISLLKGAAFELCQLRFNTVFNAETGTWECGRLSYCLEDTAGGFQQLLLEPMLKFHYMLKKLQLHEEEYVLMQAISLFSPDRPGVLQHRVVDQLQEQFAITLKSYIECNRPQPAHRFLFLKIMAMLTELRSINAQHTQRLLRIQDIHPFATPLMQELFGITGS
How it was run: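 Responses were normalized to same-plate solvent controls as percent of neutral control. AC50 values came from Hill-equation fits of concentration-response curves.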

Mouse Liver [4] = conditions: mouse, chronic study, ref ToxRefDB; cited from earlier work
Mouse Liver [5] = conditions: mouse, chronic study, ref ToxRefDB; cited from earlier work; remark: listed apart in the source
Mouse Liver [6] = conditions: mouse, chronic study, ref ToxRefDB; cited from earlier work; remark: listed apart in the source
Rat Liver [7] = conditions: rat, chronic study, ref ToxRefDB; cited from earlier work
Rat Liver [8] = conditions: rat, chronic study, ref ToxRefDB; cited from earlier work; remark: listed apart in the source
Rat Liver [9] = conditions: rat, chronic study, ref ToxRefDB; cited from earlier work; remark: listed apart in the source
PXR (NR1I2) [10] = molecular target: T3, PXR (NR1I2); assay: ATG_PXRE_CIS: Factorial reporter gene assay (HepG2); format: cell-based; design: endogenous in cells; host or cells: HepG2; conditions: HepG2
How it was run: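 Mammalian one-hybrid trans reporters (25 MRTUs) measured ERRg, FXR and PPARg; PXRE used cis reporters from a 48-site MRTU library. Both were run in HepG2. Dosing: seven concentrations, MTC as the highest, three-fold dilution series.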

ABCB1 = assay: CLZD_ABCB1: Change in expression of ABCB1 (primary human hepatocytes); format: cell-based; conditions: 24 hr
Description: This is a collection of multiplexed gene expression assays focused on Phase I and II xenobiotic metabolizing enzymes and transporters. Human primary cell cultures were treated with chemicals at 5 concentrations (0.004-40 [drawing 42] M) for 6, 24 and 48 hr. Concentration- and time-response profiles of chemicals were measured by the expression of key nuclear receptor target genes, activities of CYP1A enzymes (EROD), and cell morphology. Fourteen gene targets were monitored by quantitative nuclease protection assay including: six representative cytochrome P-450 genes, four hepatic transporters, three Phase II conjugating enzymes, and one endogenous metabolism gene involved in cholesterol synthesis. The target genes associated with nuclear receptor pathways are as follows: [drawing 43] and [drawing 44] with [drawing 45]; [drawing 46] , [drawing 47] , [drawing 48] , [drawing 49] , [drawing 50] and [drawing 51] with [drawing 52]; [drawing 53] , [drawing 54] , [drawing 55] and [drawing 56] with [drawing 57]; [drawing 58] with [drawing 59]; and [drawing 60] with [drawing 61] . Assays were run in primary human hepatocyte cultures by CellzDirect Invitrogen Inc. (Durham, NC), in collaboration with EPA.
Multiplexed Gene Expression in Human Primary Hepatocytes: This is a collection of multiplexed gene expression assays focused on Phase I and II metabolic enzymes and transporters. […] Fourteen gene targets were monitored by quantitative nuclease protection assay: six representative cytochrome P450 genes, four hepatic transporters, three Phase II conjugating enzymes, and one endogenous metabolism gene involved in cholesterol synthesis. Cells were exposed at 5 concentrations (0.004-40 µM) for 6, 24 or 48 hr. Gene targets are sentinels for five nuclear receptor signaling pathways: AhR, CAR, PXR, FXR, and PPARα. All gene are associated with nuclear receptor pathways: CYP1A1 and CYP1A2 with AHR; ABCB1, ABCG2, CYP2B6, CYP2C9, CYP2C19 and UGT1A1 with CAR; CYP3A4, GSTA2, SLCO1B1 and SULT2A1 with PXR; HMGCS2 with PPARA; and ABCB11 with FXR. […] Detailed description of the methods, data and analysis methods for this dataset will be presented in a separate publication.

CYP1A1 = assay: CLZD_CYP1A1: Change in expression of CYP1A1 (primary human hepatocytes); format: cell-based; conditions: 24 hr
How it was run: as §3

Compound | ATG_Ahr_CIS [1] | ATG_ERa_TRANS [2] | CLZD_CYP2B6_24 (CYP2B6) | CLZD_CYP3A4_24 (CYP3A4) | NVS_NR_hPXR (PXR (NR1I2) [3]) | CHR_Mouse_Liver_1_AnyLesion (Mouse Liver [4]) | CHR_Mouse_Liver_2_PreneoplasticLesion (Mouse Liver [5]) | CHR_Mouse_Liver_3_NeoplasticLesion (Mouse Liver [6]) | CHR_Rat_Liver_1_AnyLesion (Rat Liver [7]) | CHR_Rat_Liver_2_PreneoplasticLesion (Rat Liver [8]) | CHR_Rat_Liver_3_NeoplasticLesion (Rat Liver [9]) | ATG_PXRE_CIS (PXR (NR1I2) [10]) | CLZD_ABCB1_24 (ABCB1) | CLZD_CYP1A1_24 (CYP1A1)
CC1(C)C(C=C(Cl)Cl)C1C(=O)OCc1cccc(Oc2ccccc2)c1 (centres unmarked) [r242] | 4.125 | 4.523 | 4.991 | 5.668 | 4.444 | 6 | 6 | 6 | 6 | 0 | 0 | 4.959 | – | –
CC(C)(C)[C@H](O)[C@H](Cc1ccc(Cl)cc1)n1cncn1 [r235] | – | – | 5.403 | – | – | 6 | – | – | 6 | 0 | 0 | 4.824 | 5.316 | 5.242
